# Laboratory results from patent publication US8053445B2, “Utilities of olefin derivatives” (Shionogi & Co., Ltd., priority 2001, dated 2011).
# Test system: not given
# Experiment: not given
# Conditions: not given
row,melting point,Compound
1,126 to 127 °C,"c1ccc(-c2ccc(-c3cnc4ccccc4n3)cc2)cc1 [Ia-10, 2-(biphenyl-4-yl)quinoxaline]"
2,113 to 115 °C,"Clc1ccc(-c2ccc3ccccc3n2)cc1 [Ia-16, 2-(4-chlorophenyl)quinoline]"
3,101 to 102 °C,"COc1ccc(-c2cnc3ccccc3n2)cc1 [Ia-3, 2-(4-methoxyphenyl)quinoxaline]"
4,132 to 133 °C,"c1ccc2nc(-c3ccsc3)ccc2c1 [Ia-15, 2-(thiophen-3-yl)quinoline]"
5,86 to 87 °C,"c1ccc2nc(-c3ccsc3)cnc2c1 [Ia-6, 2-(thiophen-3-yl)quinoxaline]"
6,180 to 182 °C,"c1ccc(-c2ccc(-c3ccc4ccccc4n3)cc2)cc1 [Ia-12, 2-(biphenyl-4-yl)quinoline]"

# Test system: promoter region of the gene encoding human apoAI
# Experiment: Activity to enhance the expression of human apoAI (apoAI promoter-luciferase reporter in HepG2 cells)
# Format: cell-based
# Conditions: HepG2 cells stably expressing apoAI promoter-luciferase reporter; compounds at 0 to 10 μg/mL, 24 hours incubation
# Protocol: The promoter region of the gene encoding human apoAI was isolated, and ligated upstream the structure gene of firefly luciferase to construct a reporter plasmid. The reporter plasmid and a marker plasmid conferring the neomycin resistance were co-infected to cell lines derived from human hepatoma, HepG2 cells, and the cell lines were incubated in a selection medium comprising DMEM medium containing 10% fetal calf serum supplemented with G418 (Final concentration: 0.7 mg/mL, Gibco) to give established strains that stably expressed the reporter molecule. The strains were seeded to a 96-well culture plates at a density of 50,000 cells per well, and incubated for 48 hours at 37° C. under an atmosphere of 5% carbon dioxide. […] The concentration of the compounds, which intensified the luciferase activity twice compared to that of control (DMSO without any compound of the invention added) was set as the minimal effective dose (MED).
row,Compound,MED (minimum effective dose: concentration of the compound which intensified the luciferase activity twice compared to control)
1,"FC(F)(F)c1ccc(C=Cc2ccccn2)cc1 [Ib-9, 2-[2-(4-trifluorophenyl)vinyl]pyridine]",0.71 µg/mL
2,"2-phenyl-5-pyridin-2-yl-penta-2,4-diene nitrile [Ic-76]",0.23 µg/mL
3,"COc1cc(C=CC=Cc2ccccn2)ccc1OC(C)=O [Ic-18, phenyl 2-methoxy-4-(4-pyridin-2-yl-buta-1,3-dienyl)acetate]",1.9 µg/mL
4,2-(2-thiophen-3-yl-vinyl)benzothiazole [Ib-91],0.7 µg/mL
5,"C(=Cc1ccccc1)Sc1ccccn1 [Id-4, 2-styrylsulfanil-pyridine]",1.0 µg/mL
